Test results as given in US7141661B2, “Non-steroidal anti-inflammatory drug activated gene with anti-tumorigenic properties” (The United States of America as represented by the …, priority 2000, dated 2006).

Assays:
Format in all cases: cell-based, human
NAG-1 [1] = assay: Northern blot analysis of NAG-1 mRNA expression in HCT-116 cells; details: for NAG-1 Induction (mRNA) Fold: HCT-116, 24 hr in absence of serum, relative NAG-1 mRNA over vehicle control (1.0), tested over the concentration range listed; for NAG-1 expression induction: HCT-116, at any concentration tested
Procedure: Upon reaching 60–80% confluence in 10 cm plates, the cells were treated at indicated concentrations and times with either different NSAIDs or PPARγ ligands in the absence of serum. Total RNAs were isolated using TRIzol reagent (Life Technologies) according to the manufacturer's protocol. For Northern blot analysis, […] of total RNA was denatured at 55° C. for 15 min and separated in a 1.2% agarose gel containing 2.2 M formaldehyde, and transferred to Hybond-N membrane ([…]). After fixing the membrane by UV, blots were prehybridized in hybridization solution (Rapid-hyb buffer, […]) for 1 hr at 65° C. followed by hybridization with cDNA labeled with [α-^32P]dCTP by random primer extension (DECAprimeII kit, Ambion). The probes used were either full-length NAG-1 fragment or PTGFB clone (generously provided by Dr. Bento-Soar of the University of Iowa). After 4 hr incubation at 65° C., the blots were washed once with 2×SSC/0.1% SDS at RT and twice with 0.1×SSC/0.1% SDS at 65° C. Messenger RNA abundance Was estimated by intensities of the hybridization bands of autoradiographs using Scion Image (Scion). Equivalent loading of RNA samples was confirmed by hybridizing the same blot with a ^32P-labeled b-actin probe which recognizes RNA of approximately 2 kb.
To determine whether other NSAIDs increased apoptosis and NAG-1 expression, tests were conducted to determine whether variants of NSAIDs induced NAG-1 gene expression and NSAID-induced apoptosis. Aspirin, ibuprofen, indomethacin, and sulindac sulfide were selected since they are known COX inhibitors. […] HCT-116 cells were treated with different NSAIDs (vehicle, 0.2% DMSO; aspirin, 10 mM; ibuprofen, 1 mM; sodium salicylate, 5 mM; sulindac sulfide, 50 μM; sulindac, 40 μM; acetaminophen, 100 μM) for 24 hr in the absence of serum. Northern analysis was performed using NAG-1 and β-actin as probes. Total RNAs were isolated from NSAID-treated HCT-116 cells after 24 hr treatment and Northern blot was performed using NAG-1 cDNA as a probe (data not shown). […] Each of the doses were as follows: aspirin (1, 5, 10 mM); ibuprofen (100, 500, 1000 μM); salicylate (1, 2.5, 5 mM); sulindac sulfide (1, 10, 50 μM); sulindac (10, 20, 40 μM); acetaminophen (10, 50, 100 μM). After 48 hr treatment with NSAIDs in the presence of serum, cells were harvested and assayed as described in FIG. 1C. Apoptosis detected by PI staining was measured by FACS, as known in the art (FIG. 2A; HCT-116 cells were treated with different NSAIDs (vehicle, 0.2% DMSO; Aspirin, 10 mM; Ibuprofen, 1 mM; Sodium Salicylate, 5 mM; Sulindac Sulfide, 50 μM; Sulindac, 40 μM; Acetaminophen, 100 μM) for 24 hr in the absence of serum. Northern analysis was performed using NAG-1 and β-actin as probes. The open bars represent the relative expression of NAG-1 mRNA over the control (vehicle). The hatched bars represent the relative apoptosis ratio over vehicle treatment by PI staining methods. N=3±S.D.).
In the Table below, HCT-116 cells were treated with different NSAIDs (vehicle, 0.2% DMSO) for 24 hr in the absence of serum. Northern analysis was performed using NAG-1 and β-actin as probes. The data represent relative expression of NAG-1 mRNA over the control (1.0). Each NSAID was tested at 3 different concentrations and maximally effective concentration used for apoptosis determination. Apoptosis ratio by PI staining was measured by FACS. After 48 hr treatment with NSAIDs in the presence of serum, cells were harvested and assayed. The data represent relative apoptosis ratio over vehicle treatment by PI staining methods. TACS™ Annexin V-FITC kit was also used to confirm apoptosis.

HCT-116 cells = assay: Apoptosis and cell cycle by PI staining / FACS in HCT-116 cells; details: for Apoptosis (PI Staining), relative apoptosis ratio over vehicle: HCT-116, 48 hr in presence of serum, maximally effective concentration, FACS
Procedure: To determine whether NAG-1 gene expression is associated with NSAID-induced apoptosis or altered cell cycle kinetics, flow cytometric analysis of the distribution of cells at various stages of the cell cycle was performed. Apoptosis and cell cycle kinetics of INDO-treated HCT-116 cells were measured at different time points. HCT-116 cells were treated with INDO, stained with PI, and analyzed by flow cytometry. Seven thousand five hundred cells were examined by flow cytometry by gating on an area versus width dot plot to exclude cell debris and cell aggregates. Apoptosis is represented by the fold increase in sub-G1 population over 0 hr treatment.
The DNA content for NSAIDs, PPARγ ligand, and vehicle treated HCT-116 cells was determined by FACS. Cells were plated at a density of 4×10^5 cells/well in 2 ml of medium in 6 well plates, incubated for 16 h, and then treated with NSAIDs or TGZ in the presence of serum. After treatment, the cells were harvested, washed with PBS, fixed by the slow addition of cold 70% ethanol to a total of 1 ml, and stored overnight at 4° C. The fixed cells were pelleted, washed once with PBS, and stained in 1 ml of 20 μg/ml of propidium iodide (PI), 1 mg/ml RNase in PBS for 20 min. Seven thousand five hundred cells were examined by flow cytometry using Becton Dickinson FACSort equipped with CellQuest software, by gating on an area versus width dot plot to exclude cell debris and cell aggregates. Each cell cycle distribution was analyzed by the McCycle program using one cell cycle parameter. Apoptosis was measured based on the level of sub-diploid DNA contained in cells following treatment with NSAIDs or TGZ using CellQuest software.
Northern analysis was performed using NAG-1 and β-actin as probes. The data represent relative expression of NAG-1 mRNA over the control (1.0). Each NSAID was tested at 3 different concentrations and maximally effective concentration used for apoptosis determination. Apoptosis ratio by PI staining was measured by FACS. […] The data represent relative apoptosis ratio over vehicle treatment by PI staining methods. TACS™ Annexin V-FITC kit was also used to confirm apoptosis.

NAG-1 promoter = NAG-1 promoter (pNAG2021) luciferase reporter assay in transiently transfected HCT-116 cells; details: pNAG2021 in HCT-116, 24 hr; TGZ 10 μM, sulindac 40 μM, acetaminophen 100 μM, other NSAIDs; versus vehicle
NAG-1 [2] = assay: Western blot analysis of secreted NAG-1 protein from HCT-116 cells; details: HCT-116, 5 μM TGZ
Procedure: The level of secreted NAG-1 was evaluated using Western blot analysis with anti-human-NAG-1 antibody (generously provided by Dr. Paralkar of Pfizer). HCT-116 cells were grown to 60–80% confluency in 10 cm plates followed by 48 hr treatment in the absence of serum with either NSAIDs or TGZ. The media were harvested and concentrated approximately 15-fold using Centriprep 10 concentrators (Amicon). Proteins (30 μg) were separated by 15% SDS-PAGE and transferred for 1 hr onto nitrocellulose membrane (Schleicher & Schuell). The blots were blocked for 1 hr with 5% skim milk in TBS/Tween 0.05%, and probed with anti-NAG-1 antibody (1 μg/ml in TBS-0.2%-Tween20) at […] overnight. After washing, the blots were treated with horseradish peroxidase-conjugated secondary antibody for 1 hr and washed several times. The signal was detected by enhanced chemiluminescence system (AMERSHAM) and autoradiography.
HCT-116 cells were treated with 100 μM INDO in the absence of serum for various times. In FIG. 1B, left panel. 10 μg of total RNA was loaded in each lane. Northern blotting was performed using the NAG-1 probe and re-probed with β-actin probe. The hybridization signals were quantitated using Scion Image software (Scion). Levels of the 1.3 kb NAG-1 transcript were normalized to the levels of β-actin transcripts and represented relative to 0 hr treatment. […] The signal was detected by ECL reagent (AMERSHAM).

SMILES | NAG-1 Induction (mRNA) Fold (NAG-1 [1]) [Fold] | Apoptosis (PI Staining), relative apoptosis ratio over vehicle (HCT-116 cells) | other results
CCCCC/C=C/C=C1/C(=O)C=C[C@@H]1C/C=C\CCCC(=O)O [15d-PGJ2, 15-deoxy-Δ^12,14-prostaglandin J2] |  |  | Induction of NAG-1 gene expression (NAG-1 [1]; HCT-116, 1 μM): 3 fold
CC(=O)Nc1ccc(O)cc1 [Acetaminophen] | 0.9 | 0.9 ± 0.153 | NAG-1 expression induction (NAG-1 [1]): did not induce NAG-1 expression; Induction of luciferase reporter activity (2021 bp NAG-1 promoter) (NAG-1 promoter): did not increase luciferase activity
Cc1ccc(-c2cc(C(F)(F)F)nn2-c2ccc(S(N)(=O)=O)cc2)cc1 [Celecoxib] | 1.0 | 0.722 ± 0.098 | 
CC1(C)OC(=O)C(c2cccc(F)c2)=C1c1ccc(S(C)(=O)=O)cc1 [DFU] | 1.0 | 0.54 ± 0.091 | 
O=C(O)Cc1ccccc1Nc1c(Cl)cccc1Cl [Diclofenac] | 3.7 | 4.0 ± 0.315 | 
CC(C)Cc1ccc(C(C)C(=O)O)cc1 (stereo not drawn) [Ibuprofen] | 4.5 | 4.3 ± 0.666 | 
CS(=O)(=O)Nc1ccc([N+](=O)[O-])cc1OC1CCCCC1 [NS-398] | 0.9 | 1.029 ± 0.109 | 
CN1C(C(=O)Nc2ccccn2)=C(O)c2ccccc2S1(=O)=O [Piroxicam] | 2.5 | 1.9 ± 0.145 | 
O=C([O-])c1ccccc1O.[Na+] [Sodium Salicylate] | 3.0 | 1.8 ± 0.252 | 
CSc1ccc(/C=C2/C(C)=C(CC(=O)O)c3cc(F)ccc32)cc1 [Sulindac Sulfide] | 4.6 | 4.3 ± 0.737 | 
CC1=C(CC(=O)O)c2cc(F)ccc2/C1=C\c1ccc(S(C)(=O)=O)cc1 [Sulindac Sulfone] | 1.3 | 1.6 ± 0.043 | 
CC1=C(CC(=O)O)c2cc(F)ccc2/C1=C\c1ccc([S+](C)[O-])cc1 (stereo not drawn) [Sulmdac, Sulindac] | 1.5 | 1.1 ± 0.173 | NAG-1 expression induction (NAG-1 [1]): did not induce NAG-1 expression; Induction of luciferase reporter activity (2021 bp NAG-1 promoter) (NAG-1 promoter): did not increase luciferase activity
Cc1c(C)c2c(c(C)c1O)CCC(C)(COc1ccc(CC3SC(=O)NC3=O)cc1)O2 (stereo not drawn) [TGZ, Troglitazone] |  |  | Induction of NAG-1 gene expression (NAG-1 [1]; HCT-116, 5 μM): 3 fold; Earliest time at which increase in NAG-1 mRNA was observed (NAG-1 [1]; HCT-116, 5 μM TGZ): 3 h; Time at which increase in NAG-1 protein was observed (NAG-1 [2]): 6 h; Earliest time at which apoptosis was observed (HCT-116 cells; HCT-116, presence of serum, TGZ 5 μM): 12 h; Time point at which G1 arrest was seen (HCT-116 cells; HCT-116, TGZ 5 μM): 12 h; Induction of luciferase reporter activity (2021 bp NAG-1 promoter) (NAG-1 promoter): 3 fold
